Results from ChEMBL document CHEMBL3045501, “Anti-inflammatory activity of 2,5-dihydroxycyclohepta-2,4,6-trienone in rats” (Med Chem Res, 2010).

Experiments:
Rattus norvegicus [1] = experiment: Toxicity in Rattus norvegicus Wistar albino (rat) assessed as mortality at 139.6 umol/kg, po; assay type: organism-based; details: in vivo
Oryctolagus cuniculus [2] = experiment: (§1) Inhibition of hyaluronidase-induced capillary permeability in albino Oryctolagus cuniculus (rabbit) assessed as area of subcutaneous spreading of trypan blue at 27.9 umol/kg, po pretreated 1 hr prior to mixture of hyaluronidase and trypan blue challenge measured after 30 min (reference value: 498.8 mm'2); assay type: functional
Rattus norvegicus [3] = experiment: Anti-inflammatory activity in Rattus norvegicus Wistar albino (rat) assessed as inhibition of carrageenan-induced paw edema at 69.8 X 10^2 umol/kg, po administered 1 hr prior to carrageenan challenge through oral gavage measured measured 2 hr after carrageenan treatment by plethysmometer; assay type: functional
Oryctolagus cuniculus [4] = experiment: as §1, with “5” for “30”, “288.5” for “498.8”; assay type: functional
Rattus norvegicus [5] = experiment: Toxicity in Rattus norvegicus Wistar albino (rat) assessed as mortality at 69.8 umol/kg, po; assay type: organism-based; details: in vivo
Rattus norvegicus [6] = experiment: Anti-inflammatory activity in Rattus norvegicus Wistar albino (rat) assessed as inhibition of carrageenan-induced paw edema at 69.8 X 10^2 umol/kg, po administered 1 hr prior to carrageenan challenge through oral gavage measured measured 1 hr after carrageenan treatment by plethysmometer; assay type: functional
Rattus norvegicus [7] = experiment: Anti-inflammatory activity in Rattus norvegicus Wistar albino (rat) assessed as inhibition of carrageenan-induced paw edema at 69.8 X 10^2 umol/kg, po administered 1 hr prior to carrageenan challenge through oral gavage measured measured 4 hr after carrageenan treatment by plethysmometer; assay type: functional
[8] = Toxicity in Rattus norvegicus Wistar albino (rat) assessed as mortality at 61.54 X 10^2 umol/kg, po; assay type: organism-based; details: in vivo, read-out: Activity
Oryctolagus cuniculus [9] = experiment: as §1, with “3.62 x 10^2” for “27.9”, “5” for “30”, “288.5” for “498.8”; assay type: functional
Rattus norvegicus [10] = experiment: Anti-inflammatory activity in Rattus norvegicus Wistar albino (rat) assessed as inhibition of carrageenan-induced paw edema at 3.62 X 10^2 umol/kg, po administered 1 hr prior to carrageenan challenge through oral gavage measured 4 hr after carrageenan treatment by plethysmometer; assay type: functional
Rattus norvegicus [11] = experiment: Anti-inflammatory activity in Rattus norvegicus Wistar albino (rat) assessed as inhibition of carrageenan-induced paw edema at 14.48 X 10^2 umol/kg, po administered 1 hr prior to carrageenan challenge through oral gavage measured measured 2 hr after carrageenan treatment by plethysmometer; assay type: functional
Rattus norvegicus [12] = experiment: Toxicity in Rattus norvegicus Wistar albino (rat) assessed as lethargy at 18.1 to 36.2 X 10^2 umol/kg, po; assay type: organism-based; details: in vivo
Rattus norvegicus [13] = experiment: Anti-inflammatory activity in Rattus norvegicus Wistar albino (rat) assessed as inhibition of carrageenan-induced paw edema at 7.24 X 10^2 umol/kg, po administered 1 hr prior to carrageenan challenge through oral gavage measured measured 2 hr after carrageenan treatment by plethysmometer; assay type: functional
Rattus norvegicus [14] = experiment: Anti-inflammatory activity in Rattus norvegicus Wistar albino (rat) assessed as inhibition of carrageenan-induced paw edema at 7.24 X 10^2 umol/kg, po administered 1 hr prior to carrageenan challenge through oral gavage measured measured 1 hr after carrageenan treatment by plethysmometer; assay type: functional
Rattus norvegicus [15] = experiment: Anti-inflammatory activity in Rattus norvegicus Wistar albino (rat) assessed as inhibition of carrageenan-induced paw edema at 3.62 X 10^2 umol/kg, po administered 1 hr prior to carrageenan challenge through oral gavage measured 1 hr after carrageenan treatment by plethysmometer; assay type: functional
Rattus norvegicus [16] = experiment: Toxicity in Rattus norvegicus Wistar albino (rat) assessed as drinking frequency at 18.1 to 36.2 X 10^2 umol/kg, po; assay type: organism-based; details: in vivo
Oryctolagus cuniculus [17] = experiment: as §1, with “3.62 x 10^2” for “27.9”; assay type: functional
Oryctolagus cuniculus [18] = experiment: as §1, with “7.24 x 10^2” for “27.9”; assay type: functional
Rattus norvegicus [19] = experiment: Anti-inflammatory activity in Rattus norvegicus Wistar albino (rat) assessed as inhibition of carrageenan-induced paw edema at 3.62 X 10^2 umol/kg, po administered 1 hr prior to carrageenan challenge through oral gavage measured 3 hr after carrageenan treatment by plethysmometer; assay type: functional
Rattus norvegicus [20] = experiment: Anti-inflammatory activity in Rattus norvegicus Wistar albino (rat) assessed as inhibition of carrageenan-induced paw edema at 7.24 X 10^2 umol/kg, po administered 1 hr prior to carrageenan challenge through oral gavage measured measured 4 hr after carrageenan treatment by plethysmometer; assay type: functional
Rattus norvegicus [21] = experiment: Anti-inflammatory activity in Rattus norvegicus Wistar albino (rat) assessed as inhibition of carrageenan-induced paw edema at 14.48 X 10^2 umol/kg, po administered 1 hr prior to carrageenan challenge through oral gavage measured measured 3 hr after carrageenan treatment by plethysmometer; assay type: functional
[22] = Toxicity in Rattus norvegicus Wistar albino (rat) assessed as mortality at 65.16 X 10^2 umol/kg, po; assay type: organism-based; details: in vivo, read-out: Activity
Rattus norvegicus [23] = experiment: Toxicity in Rattus norvegicus Wistar albino (rat) assessed as lethargy at 57.92 X 10^2 umol/kg, po; assay type: organism-based; details: in vivo
Oryctolagus cuniculus [24] = experiment: as §1, with “7.24 x 10^2” for “27.9”, “5” for “30”, “288.5” for “498.8”; assay type: functional
Rattus norvegicus [25] = experiment: Anti-inflammatory activity in Rattus norvegicus Wistar albino (rat) assessed as inhibition of carrageenan-induced paw edema at 3.62 X 10^2 umol/kg, po administered 1 hr prior to carrageenan challenge through oral gavage measured 2 hr after carrageenan treatment by plethysmometer; assay type: functional
Rattus norvegicus [26] = experiment: Toxicity in Rattus norvegicus Wistar albino (rat) assessed as animal posture at 61.54 umol/kg, po; assay type: organism-based; details: in vivo
[27] = Toxicity in po dosed Rattus norvegicus Wistar albino (rat) assessed as mortality; assay type: organism-based; details: in vivo
Rattus norvegicus [28] = experiment: Anti-inflammatory activity in Rattus norvegicus Wistar albino (rat) assessed as inhibition of carrageenan-induced paw edema at 14.48 X 10^2 umol/kg, po administered 1 hr prior to carrageenan challenge through oral gavage measured measured 4 hr after carrageenan treatment by plethysmometer; assay type: functional
Rattus norvegicus [29] = experiment: Toxicity in Rattus norvegicus Wistar albino (rat) assessed as mortality at 65.16 to 68.78 X 10^2 umol/kg, po measured after 12 hr; assay type: organism-based; details: in vivo
Rattus norvegicus [30] = experiment: Toxicity in Rattus norvegicus Wistar albino (rat) assessed as lethargy at 54.3 X 10^2 umol/kg, po; assay type: organism-based; details: in vivo
[31] = Toxicity in Rattus norvegicus Wistar albino (rat) assessed as mortality at 57.92 X 10^2 umol/kg, po; assay type: organism-based; details: in vivo, read-out: Activity
Rattus norvegicus [32] = experiment: Anti-inflammatory activity in Rattus norvegicus Wistar albino (rat) assessed as inhibition of carrageenan-induced paw edema at 14.48 X 10^2 umol/kg, po administered 1 hr prior to carrageenan challenge through oral gavage measured measured 1 hr after carrageenan treatment by plethysmometer; assay type: functional
Rattus norvegicus [33] = experiment: Anti-inflammatory activity in Rattus norvegicus Wistar albino (rat) assessed as inhibition of carrageenan-induced paw edema at 7.24 X 10^2 umol/kg, po administered 1 hr prior to carrageenan challenge through oral gavage measured measured 3 hr after carrageenan treatment by plethysmometer; assay type: functional
Rattus norvegicus [34] = experiment: Toxicity in Rattus norvegicus Wistar albino (rat) assessed as mortality at 68.78 X 10^2 umol/kg, po; assay type: organism-based; details: in vivo
Rattus norvegicus [35] = experiment: Toxicity in Rattus norvegicus Wistar albino (rat) assessed as mortality at 18.1 to 54.3 X 10^2 umol/kg, po; assay type: organism-based; details: in vivo

Structure (SMILES): COc1ccc2c(c1)c(CC(=O)O)c(C)n2C(=O)c1ccc(Cl)cc1 [INDOMETHACIN]
- Activity (Rattus norvegicus [1]): Toxic
- Activity (Oryctolagus cuniculus [2]): 279.3 mm2
- inhibition (INH) (Rattus norvegicus [3]): 51%
- Activity (Oryctolagus cuniculus [4]): 227 mm2
- Activity (Rattus norvegicus [5]): Non-toxic
- inhibition (INH) (Rattus norvegicus [6]): 50%
- inhibition (INH) (Rattus norvegicus [7]): 45%

Structure (SMILES): O=c1ccc(O)ccc1O
- mortality [8]: 33%
- Activity (Oryctolagus cuniculus [9]): 212.5 mm2
- inhibition (INH) (Rattus norvegicus [10]): 42%
- inhibition (INH) (Rattus norvegicus [11]): 75%
- Activity (Rattus norvegicus [12]): Non-toxic
- inhibition (INH) (Rattus norvegicus [13]): 72%
- inhibition (INH) (Rattus norvegicus [14]): 41%
- inhibition (INH) (Rattus norvegicus [15]): 48%
- Activity (Rattus norvegicus [16]): Non-toxic
- Activity (Oryctolagus cuniculus [17]): 196 mm2
- Activity (Oryctolagus cuniculus [18]): 267.5 mm2
- inhibition (INH) (Rattus norvegicus [19]): 45%
- inhibition (INH) (Rattus norvegicus [20]): 67%
- inhibition (INH) (Rattus norvegicus [21]): 83%
- mortality [22]: 66%
- Activity (Rattus norvegicus [23]): Toxic
- Activity (Oryctolagus cuniculus [24]): 256 mm2
- inhibition (INH) (Rattus norvegicus [25]): 52%
- Activity (Rattus norvegicus [26]): Toxic
- LD50 [27]: 6440 µmol/kg
- inhibition (INH) (Rattus norvegicus [28]): 75%
- Activity (Rattus norvegicus [29]): Toxic
- Activity (Rattus norvegicus [30]): Toxic
- mortality [31]: 16%
- inhibition (INH) (Rattus norvegicus [32]): 76%
- inhibition (INH) (Rattus norvegicus [33]): 79%
- Activity (Rattus norvegicus [34]): Toxic
- Activity (Rattus norvegicus [35]): Non-toxic
